According to patent US5698411A, “Method for determining activity of enzymes in metabolically active whole cells” (priority 1995, dated 1997):

Key:
Type in all cases: cell-based, human
monocytes = assay: aberrant enzyme activities in febrile children, monocytes (Table 7)
lymphocytes [1] = assay: aberrant enzyme activities in febrile children, lymphocytes (Table 7)
lymphocytes [2] = assay: peptidase activity in leukemia and non-leukemia patients, lymphocytes (Table 6C); design: unit not given here
Text: (§1) Artificial intelligence was used to analyze data of cellular enzyme functions, and determine normal and disease states. Peptidases were used to distinguish leukemia from non-leukemia (output pattern). For input patterns lymphocyte and granulocyte cell types were used with aminopeptidases, cathepsins and dipeptidylpeptidase enzyme activities. In this Example, illustrated in Tables 6A-6C, three normals and three leukemia patients were used as known output patterns for the neural network to learn (in practice, the larger the learning set the more accurate unknown prediction will be). Unknowns were then presented to the learned algorithm as shown in the test case examples. Clinical diagnosis was confirmed by physicians. The trained neural network was able to correctly classify the leukemia from the non-leukemia.

granulocytes [3] = assay: peptidase activity in leukemia and non-leukemia patients, granulocytes (Table 6C); design: unit not given here
Text: as §1

granulocytes [4] = assay: aberrant enzyme activities in febrile children, granulocytes (Table 7)
[5] = tested on: metabolically active whole cell; assay: substrate panel in normals and HIV + patients, TB infection (Table 4); design: unit not given here
Protocol: A panel of assay compounds are assembled consisting of Ala-aminopeptidase and Lys-aminopeptidase, Dipeptidyl peptidase IV (Ala-Ala)2 rhodamine 110 and Cathepsin D to indicate possible TB infection in AIDS related cases.
A panel Of enzymatic substrates is performed consisting of Ala-aminopeptidase and Lys-aminopeptidase, Dipeptidyl peptidase IV (Ala-Ala)2 rhodamine 110 and Cathepsin D to indicate possible TB infection in AIDS related cases.

lymphocytes [6] = assay: enzyme activity with fluorogenic substrate, normal lymphocytes (Table 3A)

O=C1OC2(c3ccc(NC(=O)[C@@H]4CCCN4)cc3Oc3cc(NC(=O)[C@@H]4CCCN4)ccc32)c2ccccc21 [PRO, (H-L-Pro)2 --Rho 110 .2TFA]
aberrant enzyme activity, MONOS (monocytes; P92 Adenitis): .smallcircle.
aberrant enzyme activity, MONOS (monocytes; P97 Pyelonephritis): .smallcircle.
aberrant enzyme activity, MONOS (monocytes; P103 Viral Syndrome): .smallcircle.
aberrant enzyme activity, LYMPHS (lymphocytes [1]; P92 Adenitis): .smallcircle.
aberrant enzyme activity, LYMPHS (lymphocytes [1]; P97 Pyelonephritis): .smallcircle.
aberrant enzyme activity, LYMPHS (lymphocytes [1]; P103 Viral Syndrome): .smallcircle.
enzyme activity, Lymphs (lymphocytes [2]; J4 11/21/91 acute leuk.): 0.47
enzyme activity, Lymphs (lymphocytes [2]; J4 12/2/91 A L): 0.29
enzyme activity, Lymphs (lymphocytes [2]; J4 12/3/91 acute leuk.): 0.24
enzyme activity, Lymphs (lymphocytes [2]; J5 11/27/91 A M L): 0.89
enzyme activity, Lymphs (lymphocytes [2]; J19 11/27/91 C L L): 0.44
enzyme activity, Lymphs (lymphocytes [2]; J22 12/2/91 A M L): 0.40
enzyme activity, Lymphs (lymphocytes [2]; J22 12/9/91 A M L): 0.44
enzyme activity, Lymphs (lymphocytes [2]; N191 normal): 0.69
enzyme activity, Lymphs (lymphocytes [2]; N193 normal): 0.95
enzyme activity, Lymphs (lymphocytes [2]; N194 normal): 0.86
enzyme activity, Lymphs (lymphocytes [2]; N195 normal): 0.88
enzyme activity, Lymphs (lymphocytes [2]; N197 normal): 0.57
enzyme activity, Lymphs (lymphocytes [2]; N200 normal): 0.74
enzyme activity, Lymphs (lymphocytes [2]; N201 normal): 1.10
enzyme activity, Lymphs (lymphocytes [2]; N202 normal): 0.89
enzyme activity, Lymphs (lymphocytes [2]; P68 tachycardia): 0.70
enzyme activity, Lymphs (lymphocytes [2]; P69 pancreatic CA): 0.66
enzyme activity, Lymphs (lymphocytes [2]; P70 cirrhosis/hemobilia): 0.56
enzyme activity, Lymphs (lymphocytes [2]; P71 ac. pyelonephritis): 0.52
enzyme activity, Grans (granulocytes [3]; J19 11/27/91 C L L): 5.50
enzyme activity, Grans (granulocytes [3]; N195 normal): 4.70
enzyme activity, Grans (granulocytes [3]; P69 pancreatic CA): 5.70
enzyme activity, Grans (granulocytes [3]; P70 cirrhosis/hemobilia): 0.66
aberrant enzyme activity, GRANS (granulocytes [4]; P92 Adenitis): .smallcircle.
aberrant enzyme activity, GRANS (granulocytes [4]; P97 Pyelonephritis): .smallcircle.
aberrant enzyme activity, GRANS (granulocytes [4]; P103 Viral Syndrome): .smallcircle.
MEAN DELTA FL ([5]; HIV + PATIENTS): 11.0
MEAN DELTA FL ([5]; NORMALS): 11.4

CC(=O)Oc1ccc2c(c1)Oc1cc(OC(C)=O)ccc1C21OC(=O)c2ccccc21 [FDA-NAF, fluorescein diacetate, reference compound]
aberrant enzyme activity, MONOS (monocytes; P88 Enteritis): .smallcircle.
aberrant enzyme activity, MONOS (monocytes; P97 Pyelonephritis): .smallcircle.
aberrant enzyme activity, LYMPHS (lymphocytes [1]; P88 Enteritis): .smallcircle.
aberrant enzyme activity, LYMPHS (lymphocytes [1]; P97 Pyelonephritis): .smallcircle.
aberrant enzyme activity, LYMPHS (lymphocytes [1]; P99 Viral Syndrome): .smallcircle.
aberrant enzyme activity, LYMPHS (lymphocytes [1]; P102 UTI): .smallcircle.
NORMAL LEUKOCYTE ENZYME ACTIVITY LYMPHS Mean (lymphocytes [6]): 17.98
aberrant enzyme activity, GRANS (granulocytes [4]; P88 Enteritis): .smallcircle.
aberrant enzyme activity, GRANS (granulocytes [4]; P97 Pyelonephritis): .smallcircle.
aberrant enzyme activity, GRANS (granulocytes [4]; P102 UTI): .smallcircle.
